Data set [1] deals with Acetylcholinesterase (Electrophorus electricus, UniProt O42275).
Description: Inhibition of Electric eel AChE
Data set [2] has as its target Butyrylcholinesterase (Equus caballus, UniProt Q9N1N9).
Description: Inhibition of BuChE from equine serum
Data set [3] concerns Rattus norvegicus. The data set is described as follows: Effect on scopolamine-induced memory impairment in iv dosed Wistar rat assessed as decrease in time spent for exploration of the bait at the end of the eight-arm radial maze for 5 days. The format is functional, organism-based.
The test system of data set [4] is Rattus norvegicus. The data set is described as follows: Effect on scopolamine-induced memory impairment in iv dosed Wistar assessed as decrease in number of errors during exploration of the bait at the end of the eight-arm radial maze for 5 days. Format: functional, organism-based.
Data set [5] is filed under the species Rattus norvegicus. Kind of data set: Hepatotoxicity in Wistar rat liver assessed as histopathological changes. Format: toxicity, organism-based. The settings on record: in vivo.

Active and inactive are the calls of the source. The calls are words filed in the database; no cut-off is given here.

Butyrylcholinesterase, sequence (Q9N1N9 whole entry): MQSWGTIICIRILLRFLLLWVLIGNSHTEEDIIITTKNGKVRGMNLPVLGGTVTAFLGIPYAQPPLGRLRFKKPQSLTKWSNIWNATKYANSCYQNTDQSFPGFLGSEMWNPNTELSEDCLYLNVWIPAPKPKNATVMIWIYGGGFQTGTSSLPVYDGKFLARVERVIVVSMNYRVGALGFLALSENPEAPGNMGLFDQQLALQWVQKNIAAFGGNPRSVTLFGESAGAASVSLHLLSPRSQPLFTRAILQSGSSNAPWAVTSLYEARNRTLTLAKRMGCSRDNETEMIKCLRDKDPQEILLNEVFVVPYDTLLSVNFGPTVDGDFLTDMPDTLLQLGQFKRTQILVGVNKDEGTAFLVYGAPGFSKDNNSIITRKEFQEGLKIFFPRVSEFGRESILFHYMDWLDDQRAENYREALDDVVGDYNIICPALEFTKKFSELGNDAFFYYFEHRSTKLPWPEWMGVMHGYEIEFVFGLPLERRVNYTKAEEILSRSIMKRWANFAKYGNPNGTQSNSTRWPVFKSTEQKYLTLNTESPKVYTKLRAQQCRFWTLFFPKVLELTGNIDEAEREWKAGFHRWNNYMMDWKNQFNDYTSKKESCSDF
Acetylcholinesterase, sequence (O42275 whole entry): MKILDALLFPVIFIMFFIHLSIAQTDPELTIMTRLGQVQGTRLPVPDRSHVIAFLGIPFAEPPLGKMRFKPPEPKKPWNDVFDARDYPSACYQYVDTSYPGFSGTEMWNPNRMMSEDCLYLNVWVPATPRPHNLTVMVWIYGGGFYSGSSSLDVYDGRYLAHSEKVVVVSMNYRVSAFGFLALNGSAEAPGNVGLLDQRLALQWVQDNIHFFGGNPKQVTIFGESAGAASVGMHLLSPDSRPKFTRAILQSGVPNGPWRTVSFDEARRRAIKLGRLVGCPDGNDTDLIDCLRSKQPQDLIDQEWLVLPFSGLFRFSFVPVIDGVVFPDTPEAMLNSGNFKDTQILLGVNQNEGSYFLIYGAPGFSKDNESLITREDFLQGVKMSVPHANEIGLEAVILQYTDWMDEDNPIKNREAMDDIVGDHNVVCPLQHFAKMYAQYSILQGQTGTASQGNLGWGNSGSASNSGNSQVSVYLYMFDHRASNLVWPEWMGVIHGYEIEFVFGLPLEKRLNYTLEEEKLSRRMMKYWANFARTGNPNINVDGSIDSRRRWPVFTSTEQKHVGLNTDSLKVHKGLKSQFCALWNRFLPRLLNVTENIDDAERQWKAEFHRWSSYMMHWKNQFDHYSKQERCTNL

On to `O=[N+]([O-])OCCNCCCCCCCCNc1c2c(nc3ccccc13)CCCC2`, for which the results for the concentration for half-maximal inhibition (IC50) in data set [1] and in data set [2] were 7.7 nM and 17 nM, respectively.

For `O=[N+]([O-])OCCNCCCCCNc1c2c(nc3ccccc13)CCCC2`, the half-inhibitory concentration (IC50) (usually the concentration at which inhibition is half-maximal) was found to be 21.6 nM in data set [1] and 13.3 nM in data set [2].

Consider `O=[N+]([O-])OCCCNCCNc1c2c(nc3ccccc13)CCCC2`, for which the IC50 in data set [1] amounted to 13 nM; in data set [2], 18.1 nM.

Consider `CCCNCCCCNc1c2c(nc3ccccc13)CCCC2`, for which the outcome in data set [3] and in data set [4] was inactive. The IC50 stood at 23.4 nM in data set [1] and 7.2 nM in data set [2].

As for `O=[N+]([O-])OCCCNCCCCNc1c2c(nc3ccccc13)CCCC2`, the outcome in data set [3] and in data set [4] was Active. The Activity result in data set [5] is “Non-toxic”. For the same compound, the figures for the half-inhibitory concentration (IC50) in data set [1] and in data set [2] were 5.6 nM and 9.9 nM, respectively.

With `O=[N+]([O-])OCCNCCNc1c2c(nc3ccccc13)CCCC2`, the result in data set [3] and in data set [4] was Active. In addition, the figures for the half-maximal inhibitory concentration (IC50) in data set [1] and in data set [2] were 9.1 nM and 7.3 nM, respectively.

Take `O=C(CO[N+](=O)[O-])NCCCNc1c2c(nc3ccccc13)CCCC2`: the result in data set [3] and in data set [4] was Active. For the same compound, the IC50 came to 28.2 nM in data set [1] and 13.5 nM in data set [2].

For the compound `O=[N+]([O-])OCCCNCCCCCNc1c2c(nc3ccccc13)CCCC2`, the IC50 in data set [1] came out at 15.4 nM; in data set [2], 14.3 nM.

For the compound `O=[N+]([O-])OCCCNCCCCCCCCNc1c2c(nc3ccccc13)CCCC2`, the IC50 in data set [1] was found to be 17.1 nM; in data set [2], 14.8 nM.

Consider `O=[N+]([O-])OCCCCCCNCCCCCCCCNc1c2c(nc3ccccc13)CCCC2`, for which the IC50 turned out to be 19.6 nM in data set [1] and 12.9 nM in data set [2].

For the origin of these results see ChEMBL document CHEMBL1151728 (J Med Chem, 2008).
